Measurements published in patent US6472416B1, “Sulfonylphenylpyrazole compounds useful as COX-2 inhibitors” (Abbott Laboratories, priority 1999, dated 2002).

Row | SMILES | melting point
1 | CCC(=O)COc1nn(CC(=O)CC)c(-c2ccc(F)cc2)c1-c1ccc(S(C)(=O)=O)cc1 [Example 77, 1-[5-(4-Fluorophenyl)-4-(4-(methylsulphonyl)phenyl)-3-(2-oxobutoxy)-1H-pyrazol-1-yl]butan-2-one] | 56 to 58 °C
2 | CC(=O)C(C)Oc1nn(C(C)C(C)=O)c(-c2ccc(S(C)(=O)=O)cc2)c1-c1ccc(F)cc1 (centres unmarked) [Example 17, 3-[4-(4-Fluorophenyl)-5-(4-methylsulfonylphenyl)-3-(1-methyl-2-oxopropoxy)-1H-pyrazol-1-yl]butan-2-one] | 127 to 129 °C
3 | CC(C)(C)C(=O)COc1nn(CC(=O)C(C)(C)C)c(-c2ccc(S(C)(=O)=O)cc2)c1-c1ccc(F)cc1 [Example 25, 1-[3-(3,3-Dimethyl-2-oxobutoxy)-4-(4-fluorophenyl)-5-(4-(methylsulphonyl)phenyl)-1H-pyrazol-1-yl]-3,3-dimethylbutan-2-one] | 180 to 182 °C
4 | CS(=O)(=O)c1ccc(-c2nn3c(-c4ccccc4)c(-c4ccccc4)oc3c2-c2ccc(F)cc2)cc1 [Example 38, 7-(4-Fluorophenyl)-6-(4-(methylsulphonyl)phenyl)-2,3-diphenylpyrazolo[5,1-b][1,3]oxazole] | 228 to 229 °C
5 | CS(=O)(=O)c1ccc(-c2nn3c(c2-c2ccc(F)cc2)OCCCC3)cc1 [Example 2, 3-(4-Fluorophenyl)-2-(4-(methylsulphonyl)phenyl)-5,6,7,8-tetrahydropyrazolo[5,1-b][1,3]oxazepine] | 167 to 168 °C
6 | CC(C)(C)C(=O)COc1nn(CC#N)c(-c2ccc(S(C)(=O)=O)cc2)c1-c1ccc(F)cc1 [Example 28, 2-[3-(3,3-Dimethyl-2-oxobutoxy)-4-(4-fluorophenyl)-5-(4-(methylsulphonyl)phenyl)-1H-pyrazol-1-yl]acetonitrile] | 156 to 159 °C

Now from value to molecule:

Row | melting point | SMILES
7 | 183 to 184 °C | CS(=O)(=O)c1ccc(-c2nn3c4c(oc3c2-c2ccc(F)cc2)CCCC4)cc1 [Example 42, 3-(4-Fluorophenyl)-2-(4-(methylsulphonyl)phenyl)-5,6,7,8-tetrahydropyrazolo[5,1-b][1,3]benzoxazole]
8 | 234 to 236 °C | Cc1oc2c(-c3ccc(F)cc3)c(-c3ccc(S(C)(=O)=O)cc3)nn2c1-c1ccccc1 [Example 41, 7-(4-Fluorophenyl)-2-methyl-6-(4-(methylsulphonyl)phenyl)-3-phenylpyrazolo[5,1-b][1,3]oxazole]
9 | 67 to 70 °C | CS(=O)(=O)c1ccc(-c2nn3ccoc3c2-c2ccc(F)cc2)cc1 [Example 60, 7-(4-Fluorophenyl)-6-(4-(methylsulphonyl)phenyl)pyrazolo[5,1-b][1,3]oxazole]
10 | 181 to 182 °C | CC(C)(C)c1coc2c(-c3ccc(F)cc3)c(-c3ccc(S(C)(=O)=O)cc3)nn12 [Example 40, 3-(Tert-butyl)-7-(4-fluorophenyl)-6-(4-(methylsulphonyl)phenyl)pyrazolo[5,1-b][1,3]oxazole]
11 | 222 to 223 °C | Cc1oc2c(-c3ccc(F)cc3)c(-c3ccc(S(C)(=O)=O)cc3)nn2c1-c1ccc(Cl)s1 [Example 45, 3-(5-Chloro-2-thienyl)-7-(4-fluorophenyl)-2-methyl-6-(4-(methylsulphonyl)phenyl)pyrazolo[5,1-b][1,3]oxazole]
12 | 237 to 240 °C | CS(=O)(=O)c1ccc(-c2c(-c3ccc(F)cc3)c(=O)n3n2Cc2c(Cl)cccc2-3)cc1 [Example 65, 8-Chloro-2-(4-fluorophenyl)-1-(4-(methylsulphonyl)phenyl)-3H,9H-pyrazolo[1,2-a]indazol-3-one]
13 | 186 to 189 °C | CS(=O)(=O)c1ccc(-c2nn3c(C(F)(F)F)coc3c2-c2ccc(F)cc2)cc1 [Example 50, 7-(4-Fluorophenyl)-6-(4-(methylsulphonyl)phenyl)-3-(trifluoromethyl)pyrazolo[5,1-b][1,3]oxazole]
14 | 235 to 237 °C | NS(=O)(=O)c1ccc(-c2nn3c(-c4ccc(F)cc4)coc3c2-c2ccc(F)cc2)cc1 [Example 57, 4-[3,7-Bis(4-fluorophenyl)pyrazolo[5,1-b][1,3]oxazol-6-yl]benzenesulphonamide]
